Reference: US20050250765A1, “Diazepinones as antiviral agents” (priority 2000, published 2005)
Like-named read-outs stand apart in the source and are kept apart here.

Experiments:
in vitro = conditions: African green monkey, TC50
[1] = Metabolic stability, in vitro half-life in human liver microsomes; assay type: in vitro ADME; conditions: liver microsomes (pooled), 30 μM compound, 0.5 mg/mL pooled microsomal protein, 1.0 mM NADPH, 37° C., pH 7.4, read-out: t½ (min) Human Liver Microsome Preparation
Procedure: Compounds were individually incubated (30 μM, dissolved in DMSO) with human and mouse liver microsomes. The incubation consisted of 50 mM KPO4, pH 7.4 buffer with 0.5 mg/mL pooled microsomal protein, 30 μM compound, and 1.0 mM NADPH. The total incubate volume was 0.5 mL. The incubate solution was pro-incubated for 3 minutes at 37° C. and the reaction initiated by the addition of NADPH. At 0, 10, 20, and 40 minutes 50 μL aliquots were removed and quenched with 100 μL acetonitrile and 25 μL of internal standard. Standard curves of each compound were prepared in a simialr manner at a concentration range of 7.5 μM to 45 μM. Th in vitro metabolic half-life determinations of these preparations were determined from the concentration vs. time plots using WinNonlin software. The in vitro half-life data represents the extent of oxidative and hydrolytic metabolism.

Vero cells [2] = conditions: read-out: TC50; 2-day XTT, no virus
Vero cells [3] = conditions: African green monkey, 2 day

Compound	CC50 at 2 day (in vitro) [µM]	further results
C=CCN1CCNC(=O)c2sc3ccc([N+](=O)[O-])cc3c21 [U, 5-Allyl-3-nitro-5,6,7,8-tetrahydro-10-thia-5,8-diaza-benz[a]azulen-9-one]	8.1	–
CCCN1CC(C)(C)NC(=O)c2sc3ccc(OC)cc3c21 [TT, 3-Methoxy-7,7-dimethyl-5-propyl-5,6,7,8-tetrahydro-10-thia-5,8-diaza-benzo[a]azulen-9-one]	0.4	–
COc1ccc2sc3c(c2c1)NC(Cc1ccccc1)CNC3=O (centres unmarked) [PP2, 6-Benzyl-3-methoxy-5,6,7,8-tetrahydro-10-thia-5,8-diaza-benzo[a]azulen-9-one]	1.1	–
O=C1NCCNc2c1ccc1cnccc21 [F, 8,9,10,11-Tetrahydro-3,8,11-triaza-cyclohepta[a]naphthalen-7-one]	1.7	half-life at 30 μM [1]: > 200 min
C=C(C)CN1CCNC(=O)c2sc3ccc(F)cc3c21 [CC5, 3-Fluoro-5-(2-methyl-allyl)-5,6,7,8-tetrahydro-10-thia-5,8-diaza-benz[a]azulen-9-one]	18.5	–
COc1ccc2sc3c(c2c1)NCCNC3=O [B, 3-Methoxy-5,6,7,8-tetrahydro-10-thia-5,8-diaza-benzo[a]azulen-9-one]	4.5	half-life at 30 μM [1]: 66 min
CN1CCNC(=O)c2ccc3cnccc3c21 [GG4, 11-Methyl-8,9,10,11-tetrahydro-3,8,11-triaza-cyclohepta[a]naphthalen-7-one]	11.5	–
CCN1CCNC(=O)c2oc3ccc(OC)cc3c21 [H, 5-Ethyl-3-methoxy-5,6,7,8-tetrahydro-10-oxa-5,8-diaza-benzo[a]azulen-9-one]	–	half-life at 30 μM [1]: 200 min
COc1cccc(CN2CCNC(=O)c3sc4ccc([N+](=O)[O-])cc4c32)c1 [V, 5-(3-Methoxy-benzyl)-3-nitro-5,6,7,8-tetrahydro-10-thia-5,8-diaza-benz[a]azulen-9-one]	1.3	–
COc1ccc2oc3c(c2c1)N(CCC(C)C)CCNC3=O [YY5, 3-Methoxy-5-(3-methyl-butyl)-5,6,7,8-tetrahydro-10-oxa-5,8-diaza-benzo[a]azulen-9-one]	10	–
COc1ccc(CN2CC(C)(C)NC(=O)c3sc4ccc(OC)cc4c32)cc1 [K, 3-Methoxy-5-(4-methoxy-benzyl)-7,7-dimethyl-5,6,7,8-tetrahydro-10-thia-5,8-diaza-benzo[a]azulen-9-one]	–	half-life at 30 μM [1]: 150 min
COc1ccc2sc3c(c2c1)N(Cc1ccc(C#N)cc1)CCN(C)C3=O [AA4, 4-(3-Methoxy-8-methyl-9-oxo-6,7,8,9-tetrahydro-10-thia-5,8-diaza-benzo[a]azulen-5-ylmethyl)-benzonitrile]	100	–
CCCN1CCNC(=O)c2sc3ccc(OCC)cc3c21 [D, 3-Ethoxy-5-propyl-5,6,7,8-tetrahydro-10-thia-5,8-diaza-benzo[a]azulen-9-one]	100	–
COc1ccc2sc3c(c2c1)N(Cc1ccc([N+](=O)[O-])cc1)CCNC3=O [SS3, 3-Methoxy-5-(4-nitro-benzyl)-5,6,7,8-tetrahydro-10-thia-5,8-diaza-benzo[a]azulen-9-one]	83	–
CCOc1ccc2sc3c(c2c1)NCC(C)(C)NC3=O [NN, 3-Ethoxy-7,7-dimethyl-5,6,7,8-tetrahydro-10-thia-5,8-diaza-benzo[a]azulen-9-one]	–	half-life at 30 μM [1]: 133 min
5-(3-Methoxy-benzyl)-3-nitro-5,6,7,8-tetrahydro-10-thia-5,8-diaza-benz[a]azulen-9-one [W]	–	CC50 (Vero cells [2]): 100 µM
CCCCN1CCNC(=O)c2sc3ccc([N+](=O)[O-])cc3c21 [DD, 5-n-Butyl-3-nitro-5,6,7,8-tetrahydro-10-thia-5,8-diaza-benz[a]azulen-9-one]	12.9	–
C=C(C)CN1CCNC(=O)c2sc3ccc([N+](=O)[O-])cc3c21 [Q, 5-(2-Methyl-allyl)-3-nitro-5,6,7,8-tetrahydro-10-thia-5,8-diaza-benz[a]azulen-9-one]	6	–
COc1ccc2sc3c(c2c1)N(Cc1ccccc1C)CCNC3=O [WW3, 3-Methoxy-5-(2-methyl-benzyl)-5,6,7,8-tetrahydro-10-thia-5,8-diaza-benzo[a]azulen-9-one]	10.2	–
C=C(Cl)CN1CCNC(=O)c2sc3ccc(OC)cc3c21 [MM3, 5-(2-Chloro-allyl)-3-methoxy-5,6,7,8-tetrahydro-10-thia-5,8-diaza-benzo[a]azulen-9-one]	3	–
COc1cccc(CN2CCNC(=O)c3sc4ccc(OC)cc4c32)c1 [C, 3-Methoxy-5-(3-methoxy-benzyl)-5,6,7,8-tetrahydro-10-thia-5,8-diaza-benzo[a]azulen-9-one]	10	–
COc1cccc(CN2CC(C)NC(=O)c3sc4ccc(OC)cc4c32)c1 (centres unmarked) [EE2, 3-Methoxy-5-(3-methoxy-benzyl)-7-methyl-5,6,7,8-tetrahydro-10-thia-5,8-diaza-benzo[a]azulen-9-one]	–	CC50 (Vero cells [3]): 3.4 µM
COc1cccc(CN2CC(C)NC(=O)c3sc4ccc(OC)cc4c32)c1 (centres unmarked) [O, 3-Methoxy-5-(3-methoxy-benzyl)-7-methyl-5,6,7,8-tetrahydro-10-thia-5,8-diaza-benzo[a]azulen-9-one]	–	CC50 (Vero cells [3]): 18 µM
COc1cccc(CN2CCNC(=O)c3ccc4cnccc4c32)c1 [FF4, 11-(3-Methoxy-benzyl)-8,9,10,11-tetrahydro-3,8,11-triaza-cyclohepta[a]naphthalen-7-one]	–	half-life at 30 μM [1]: > 200 min
